Results on one molecule are retold here after patent US20100247444A1, “COMPOUND, […], NUCLEAR […] RESONANCE […] METHOD, NUCLEAR […] RESONANCE IMAGING METHOD, MASS SP[…] AND MASS SP[…] METHOD” (KYOTO UNIVERSITY, priority 2007, published 2010).

For this data set the following is noted: Meth-A cancer bearing BALB/c mouse, 100 μl of 2 mg/ml in PBS via tail vein, organs collected after 1 hour. The protocol:
(i) Preparation of a cancer bearing mouse Meth-A cells cultured in abdominal cavity of a BALB/c mouse were harvested by administrating 50 ml saline to the mouse. The cells were collected by centrifugation and resuspended in PBS (50 ml). The cells were counted and prepared at 2.0×10^7/ml. 100 μl of the solution containing the cells was subcutaneously injected to a left foot of another BALE/c mouse. […] After 1 hour, the mouse was dissected and the necessary organs (blood (200 μl), liver, kidney, cancer) were collected into microtubes. 1× Lysis buffer (500 μl) was added to each of the tubes and the organs were mashed by using beads. The microtubes were centrifuged (14,000 rpm, 30 min) for the debris to be precipitated and the supernatants were collected and subjected to multiple resonance measurement utilizing magnetic coherence transfer between three elements of ^1H—^13C—^15N.

Regarding `[13CH3][15N+]([13CH3])([13CH3])CCO` [^13C3—^15N-choline chloride], the “signals derived from methyl groups of cholines (triple resonance NMR, 3.0 ppm) in cancer” value (cancer tissue lysate supernatant) is on record as “detected”. Moreover, the “signals derived from methyl groups of cholines (triple resonance NMR, 3.0 ppm) in kidney” value (kidney lysate supernatant) is given as “detected”.
